The values that follow come from patent US12593845B2 (priority 2019, dated 2026).

Assay [1] relates to apple scab pathogen (Venturia inaequalis). Description: Apple scab control test. The class given is in vivo. The note with it: 336 h, 125 ppm drug solution sprayed onto apple seedlings (Orin), lesion area ratio 2 weeks after inoculation. The protocol:
(§1) 5 parts by weight of the dihydropyrimidine compound of the present invention, 93.5 parts by weight of N,N-dimethylformamide, and 1.5 parts by weight of polyoxyethylene sorbitan monolaurate (TWEEN® 20) were mixed and dissolved to obtain an emulsion (I) including 5% of an active ingredient.
(§2) The control value was calculated by the following expression. Control value (%)=100−{lesion area ratio in treated group/lesion area ratio in untreated group}×100 [Expression 1]
Water was added to the emulsion (I) such that the concentration of the dihydropyrimidine compound reached 125 ppm to dissolve the emulsion, and a drug solution was obtained. Subsequently, the drug solution was sprayed onto apple seedlings (variety: “Orin”, leaf stage: 3 to 4) cultivated in seedling pots. After air drying, the seedlings were inoculated with conidiospores of an apple scab pathogen (Venturia inaequalis) (treated group). As a control, apple seedlings that were not sprayed with the drug solution were inoculated in the same manner (untreated group). The seedlings were left to stand in a humidified room at 20° C. using a 12 hour light/dark cycle.
On the day 2 weeks after the inoculation, the leaves of the apple seedlings were visually observed to determine the lesion area ratio, and the control value was calculated.

Another assay has as its system Aspergillus niger. Description: Antimicrobial test against Aspergillus niger. The note with it: 96 h, Vogel medium, 25° C., 4 days in the dark, turbidity at 405 nm, read-out: growth inhibition rate. The class given is cell-based. The protocol: Spores of Aspergillus niger were added to and dispersed in a Vogel medium, and a dihydropyrimidine compound dissolved in dimethyl sulfoxide was added and mixed thereto at 25 ppm. The resulting solution was dispensed onto a 96-well microplate and cultivated in the dark at 25° C. for 4 days.
After the cultivation, the turbidity at a wavelength of 405 nm was measured by a microplate reader and compared with that in the untreated case to determine the growth inhibition of Aspergillus niger (%) was determined.

Assay [2] concerns wheat powdery mildew pathogen (Erysiphe graminis f. sp. tritici). Put plainly: Wheat powdery mildew control test. The class given is in vivo. The note with it: Blumeria graminis, 144 h; 125 ppm drug solution sprayed onto wheat seedlings (Chihoku); lesion area ratio 6 days after inoculation. The protocol:
as §1, §2
Water was added to the emulsion (I) such that the concentration of the dihydropyrimidine compound reached 125 ppm to dissolve the emulsion, and a drug solution was obtained. Subsequently, the drug solution was sprayed onto wheat seedlings (variety: “Chihoku”, leaf stage: 1 to 2) cultivated in seedling pots. After air drying, conidiospores of a wheat powdery mildew pathogen (Erysiphe graminis f. sp. tritici) were sprinkled thereon for inoculation (treated group). As a control, wheat seedlings that were not sprayed with the drug solution were inoculated in the same manner as described above (untreated group). The seedlings were left to stand in a greenhouse at 20° C.
On the 6 days after the inoculation, the leaves of the wheat seedlings were visually observed to determine the lesion area ratio, and the control value was calculated.

Assay [3] shares this test system. Description: Wheat powdery mildew seed treatment test. The class given is in vivo. The conditions noted are these: Blumeria graminis, 168 h; seed treatment 100 g/100 kg wheat seeds (Chihoku); inoculation after 8 to 10 days; lesion area ratio 7 days after inoculation. The protocol:
as §1, §2
The emulsion (I) was used to treat seeds such that (weight of dihydropyrimidine compound)/(weight of seeds) reached 100 g/100 kg based on the wheat seeds (variety: “Chihoku”). These seeds were disseminated in pots, and after 8 to 10 days, conidiospores of a wheat powdery mildew pathogen (Erysiphe graminis f. sp. tritici) were sprinkled thereon for inoculation (treated group). As a control, wheat seedlings that were not treated with the drug were inoculated in the same manner as described above (untreated group). The seedlings were left to stand in a greenhouse at 20° C.
On the 7 days after the inoculation, the leaves of the wheat seedlings were visually observed to determine the lesion area ratio, and the control value was calculated.

SMILES strings stand for the structures.

Take `CCON=Cc1cn(CC(OCCC#N)c2cc(F)ccc2OC)c(=O)n(CC(C)(C)C(=O)NC(C)C)c1=O` (centres unmarked) [A-7]: the pest or weed control at 125 ppm in assay [1] was at least 75%. Besides, the inhibition at 25 ppm with Aspergillus niger was at least 50%. For the compound `CCON=Cc1cn(CC(OCCC#N)c2cc(F)ccc2OC)c(=O)n(CCNC(=O)OC(C)(C)C)c1=O` (centres unmarked) [A-18], the pest or weed control at 125 ppm in assay [1] and in assay [2] was at least 75% throughout. Take `CCON=C(C)c1cn(CC(O)c2cc(F)ccc2OC)c(=O)n(C(C)C(=O)NC(C)C)c1=O` (centres unmarked) [A-31]: the pest or weed control at 125 ppm in assay [1] and in assay [2] was at least 75% each time. As for `CCO/N=C(\C)c1cn(CC(O)c2cc(F)ccc2OC)c(=O)n(CCNC(=O)C(C)C)c1=O` (centres unmarked) [A-37, N-(2-(5-(1-(ethoxyimino)ethyl)-3-(2-(5-fluoro-2-methoxyphenyl)-2-hydroxyethyl)-2,6-dioxo-3,6-dihydropyrimidin-1(2H)-yl)ethyl)isobutyramide], the pest or weed control at 125 ppm in assay [1] is at least 75%. Besides, the inhibition at 25 ppm in the assay with Aspergillus niger is at least 50%. For the compound `CCO/N=C(\C)c1cn(CC(OCCC#N)c2cc(F)ccc2OC)c(=O)n(CCNC(=O)C(C)C)c1=O` (centres unmarked) [A-38, N-(2-(3-(2-(2-cyanoethoxy)-2-(5-fluoro-2-methoxyphenyl)ethyl)-5-(1-(ethoxyimino)ethyl)-2,6-dioxo-3,6-dihydropyrimidin-1(2H)-yl)ethyl)isobutyramide], the pest or weed control at 125 ppm in assay [1] and in assay [2] was at least 75% throughout. The inhibition at 25 ppm in the assay on Aspergillus niger was at least 50%. For `CCO/N=C(\C)c1cn(CC(O)c2cc(F)ccc2OC)c(=O)n(C[C@H](C)NC(=O)C(C)C)c1=O` (some centres unmarked) [A-42], the pest or weed control at 125 ppm in assay [1] and in assay [2] was at least 75% in each case. In the assay with Aspergillus niger, the inhibition at 25 ppm was at least 50%. In the case of `CCO/N=C(\C)c1cn(/C=C(\OC(=O)C(C)C)c2cc(F)ccc2OC)c(=O)n(C[C@H](C)NC(=O)C(C)C)c1=O` [A-46], the pest or weed control at 125 ppm in assay [1] and in assay [2] was at least 75% each time. On to `C/C(=N\OC(C)C)c1cn(CC(O)c2ccccc2OC(C)C)c(=O)n(C[C@H](C)NC(=O)C(C)C)c1=O` (some centres unmarked) [A-49], for which the pest or weed control at 125 ppm in assay [1] and in assay [2] was at least 75% in each case. On to `CCOc1ccccc1C(O)Cn1cc(/C(C)=N/OC(C)C)c(=O)n(C[C@H](C)NC(=O)C(C)C)c1=O` (some centres unmarked) [A-51], for which the pest or weed control at 125 ppm in assay [1] and in assay [2] was at least 75% in each case. For the same compound, the inhibition at 25 ppm in the assay on Aspergillus niger was at least 50%.

With `COc1ccc(F)cc1C(O)Cn1cc(C=NOC(C)C)c(=O)n(C(C)C(=O)N2CCOCC2)c1=O` (centres unmarked) [A-71], the pest or weed control at 125 ppm in assay [1] and in assay [2] was at least 75% throughout. Take `COc1ccc(F)cc1C(O)Cn1cc(C=NOC(C)C)c(=O)n(C(C)CNC(=O)C(C)C)c1=O` (centres unmarked) [A-79]: the pest or weed control at 125 ppm in assay [1] and in assay [2] was at least 75% throughout. Besides, the inhibition at 25 ppm with Aspergillus niger is at least 50%. For the compound `COc1ccc(F)cc1C(Cn1cc(C=NOC(C)C)c(=O)n(C(C)C(=O)N2CCC2)c1=O)OCCC#N` (centres unmarked) [A-81], the pest or weed control at 125 ppm in assay [1] and in assay [2] was at least 75% each time. Regarding `COc1ccc(F)cc1C(Cn1cc(C=NOC(C)C)c(=O)n(CC(=O)NC(C)C)c1=O)OCCC#N` (centres unmarked) [A-84], the pest or weed control at 125 ppm in assay [1] and in assay [2] was at least 75% each time. With `COc1ccc(F)cc1C(O)Cn1cc(C=NOC(C)C)c(=O)n(C(C)C(=O)N2CCC2)c1=O` (centres unmarked) [A-86], in assay [2], the pest or weed control at 125 ppm was at least 75%. For the compound `CCO/N=C(\C)c1cn(CC(OC(C)=O)c2cc(F)ccc2OC)c(=O)n(CCNC(=O)C(C)C)c1=O` (centres unmarked) [A-88], the pest or weed control at 125 ppm in assay [1] was at least 75%. The inhibition at 25 ppm in the assay on Aspergillus niger was at least 50%.

Take `COc1ccc(F)cc1C(O)Cn1cc(C=NOC(C)C)c(=O)n(C(C)C(=O)N2CCCCC2)c1=O` (centres unmarked) [A-90]: the pest or weed control at 125 ppm in assay [1] and in assay [2] was at least 75% in each case. In addition, the inhibition at 25 ppm with Aspergillus niger was at least 50%. As to `CCON=Cc1cn(CC(O)c2cc(F)ccc2OC)c(=O)n(CC(C)(C)NC(=O)C(C)C)c1=O` (centres unmarked) [A-92], the pest or weed control at 125 ppm in assay [2] is at least 75%. Turning to `CCON=Cc1cn(CC(O)c2cc(F)ccc2OC)c(=O)n(C(C)C(=O)NC(C)C)c1=O` (centres unmarked) [A-94], the pest or weed control at 125 ppm in assay [1] and in assay [2] was at least 75% in each case. In the case of `CCO/N=C(\C)c1cn(CC(OC)c2cc(F)ccc2OC)c(=O)n(CCNC(=O)C(C)C)c1=O` (centres unmarked) [A-96], the pest or weed control at 125 ppm in assay [1] and in assay [2] was at least 75% each time. The inhibition at 25 ppm in the assay on Aspergillus niger was at least 50%. On to `CCO/N=C(\C)c1cn(CC(OC)c2cc(F)ccc2OC)c(=O)n(CCN(C)C(=O)C(C)C)c1=O` (centres unmarked) [A-97], for which the pest or weed control at 125 ppm in assay [1] and in assay [2] was at least 75% each time. Further, in the assay on Aspergillus niger, the inhibition at 25 ppm is at least 50%. On to `COc1ccc(F)cc1C(Cn1cc(/C(C)=N/OC(C)C)c(=O)n(CCNC(=O)C(C)C)c1=O)OCCC#N` (centres unmarked) [A-101], for which the pest or weed control at 125 ppm in assay [1] and in assay [2] was at least 75% in each case. For the same compound, in the assay with Aspergillus niger, the inhibition at 25 ppm was at least 50%.

Consider `COc1ccc(F)cc1C(O)Cn1cc(/C(C)=N/OC(C)C)c(=O)n(CCNC(=O)C(C)C)c1=O` (centres unmarked) [A-102], for which the pest or weed control at 125 ppm in assay [1] and in assay [2] was at least 75% throughout. Also, in the assay with Aspergillus niger, the inhibition at 25 ppm is at least 50%. Take `CCON=Cc1cn(CCc2ccccc2OC)c(=O)n(C(C)C(=O)N2CCCC2)c1=O` (centres unmarked) [A-104]: in assay [1], the pest or weed control at 125 ppm is at least 75%.

`CCON=Cc1cn(CCc2ccccc2OC)c(=O)n(C(C)C(=O)N2CCCCC2)c1=O` (centres unmarked) [A-105]: the pest or weed control at 125 ppm in assay [1] and in assay [2] was at least 75% each time. For the compound `CCON=Cc1cn(CCc2ccccc2OC)c(=O)n(C(C)C(=O)NC(C)C)c1=O` (centres unmarked) [A-107], the pest or weed control at 125 ppm in assay [1] is at least 75%. Regarding `CCO/N=C(\C)c1nn(CC(O)c2cc(F)ccc2OC)c(=O)n(C[C@H](C)NC(=O)C(C)C)c1=O` (some centres unmarked) [B-1], the pest or weed control at 125 ppm in assay [2] is at least 75%. For the compound `CCO/N=C(\C)c1nn(CC(OCCC#N)c2cc(F)ccc2OC)c(=O)n(C(C)C(=O)NC(C)C)c1=O` (centres unmarked) [B-3], the pest or weed control at 125 ppm in assay [1] and in assay [2] was at least 75% throughout. On to `CCCn1c(=O)c(/C(C)=N/OC(C)C)cn(CC(O)c2cc(F)ccc2OC)c1=O` (centres unmarked) [B-7], for which the pest or weed control at 125 ppm in assay [1] is at least 75%.

As to `COc1ccccc1CCn1cc(/C(N)=N/OC(C)C)c(=O)n(CCc2ccccc2OC)c1=O` [B-8], the pest or weed control at 125 ppm in assay [1] was at least 75%. Still for that read-out and setting: with `CCO/N=C(\N)c1cn(CCc2ccccc2OC)c(=O)n(CCc2ccccc2OC)c1=O` [B-9] the figure was at least 75%.

In the case of `CC[C@@H](Cn1c(=O)c(/C(C)=N/OC(C)C)cn(CC(O)c2cc(F)ccc2OC)c1=O)NC(=O)N(C)C` (some centres unmarked) [C-54], the pest or weed control at 100 g/100 kg seed in assay [3] was at least 75%. In addition, the inhibition at 25 ppm with Aspergillus niger is at least 50%.

With `CCC(=O)N[C@@H](CC)Cn1c(=O)c(/C(C)=N/OC(C)C)cn(CC(O)c2cc(F)ccc2OC)c1=O` (some centres unmarked) [C-56], the pest or weed control at 100 g/100 kg seed in assay [3] is at least 75%. Further, the inhibition at 25 ppm in the assay on Aspergillus niger was at least 50%. Turning to `COc1ccccc1C(O)Cn1cc(/C(C)=N/OC(C)C)c(=O)n(C[C@@H](NC(=O)c2ccccc2)C(C)C)c1=O` (some centres unmarked) [C-85], the pest or weed control at 100 g/100 kg seed in assay [3] is at least 75%. As to `CCN(C)C(=O)N[C@H](Cn1c(=O)c(/C(C)=N/OC(C)C)cn(CC(O)c2cc(F)ccc2OC)c1=O)C(C)C` (some centres unmarked) [C-89], the pest or weed control at 100 g/100 kg seed in assay [3] was at least 75%. Further, in the assay on Aspergillus niger, the inhibition at 25 ppm was at least 50%. Consider `COc1ccccc1C(O)Cn1cc(/C(C)=N/OC(C)C)c(=O)n(C[C@@H](NC(=O)CC(C)C)C(C)C)c1=O` (some centres unmarked) [C-97], for which the pest or weed control at 100 g/100 kg seed in assay [3] is at least 75%. Turning to `COc1ccc(F)cc1C(O)Cn1cc(/C(C)=N/OC(C)C)c(=O)n(C[C@@H](NC(=O)C(C)(C)C)C(C)C)c1=O` (some centres unmarked) [C-112], in assay [3], the pest or weed control at 100 g/100 kg seed was at least 75%. For the same compound, the inhibition at 25 ppm in the assay on Aspergillus niger was at least 50%.

For orientation: pest or weed control means how far the test organism was held down. What is called inhibition is how much of the control response was suppressed.
